Source: patent US8658604B2, “Template-fixed beta-hairpin peptidomimetics with protease inhibitory activity” (Polyphor Ltd, priority 2005, dated 2014)
Where a SMILES comes first, the peptide text is derived from it.

The compounds below were run against T1, Elastase from human neutrophils (Homo sapiens, UniProt P08246) (assay: Enzymatic assay, elastase). Details: Elastase IC50.
T1 sequence (P08246 30-267): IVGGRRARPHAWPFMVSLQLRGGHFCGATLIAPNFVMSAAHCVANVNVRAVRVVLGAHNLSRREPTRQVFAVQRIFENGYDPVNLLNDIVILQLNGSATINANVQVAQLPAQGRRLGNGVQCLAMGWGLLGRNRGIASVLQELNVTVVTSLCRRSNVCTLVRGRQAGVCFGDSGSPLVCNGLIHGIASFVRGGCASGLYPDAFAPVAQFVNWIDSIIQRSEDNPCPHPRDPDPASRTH
Compound CC[C@H](C)[C@@H]1NC(=O)[C@@H]2CCCN2C(=O)[C@H]2CCCN2C(=O)[C@H](Cc2ccc(O)cc2)NC(=O)[C@@H]2CSSC[C@H](NC1=O)C(=O)N[C@@H]([C@@H](C)O)C(=O)N[C@@H](C)C(=O)N[C@@H](CO)C(=O)N[C@@H](CC(C)C)C(=O)N1CCC[C@H]1C(=O)N1CCC[C@H]1C(=O)N[C@@H](CCC(N)=O)C(=O)N2 [Ex. 76] (HELM PEPTIDE1{I.C.T.A.S.L.P.P.Q.C.Y.[dP].P}$PEPTIDE1,PEPTIDE1,2:R3-10:R3|PEPTIDE1,PEPTIDE1,1:R1-13:R2$$$V2.0) has an IC50 of 71 nM. Work on CCCC[C@@H]1NC(=O)[C@@H]2CCCN2C(=O)[C@H]2CCCN2C(=O)[C@H](Cc2ccc(O)cc2)NC(=O)[C@@H]2CSSC[C@H](NC1=O)C(=O)N[C@@H]([C@@H](C)O)C(=O)N[C@@H]([C@@H](C)O)C(=O)N[C@@H](CO)C(=O)N[C@@H]([C@@H](C)CC)C(=O)N1CCC[C@H]1C(=O)N1CCC[C@H]1C(=O)N[C@@H](Cc1ccc(O)cc1)C(=O)N2 [Ex. 77] (HELM PEPTIDE1{[Nle].C.T.T.S.I.P.P.Y.C.Y.[dP].P}$PEPTIDE1,PEPTIDE1,2:R3-10:R3|PEPTIDE1,PEPTIDE1,1:R1-13:R2$$$V2.0) yielded an IC50 of 68 nM. With CCCC[C@@H]1NC(=O)[C@@H]2CCCN2C(=O)[C@H]2CCCN2C(=O)[C@H](Cc2ccc(O)cc2)NC(=O)[C@@H]2CSSC[C@H](NC1=O)C(=O)N[C@@H]([C@@H](C)O)C(=O)N[C@@H](C)C(=O)N[C@@H](CO)C(=O)N[C@@H](CCCC)C(=O)N1CCC[C@H]1C(=O)N1CCC[C@H]1C(=O)N[C@@H](CCC(N)=O)C(=O)N2 [Ex. 79] (HELM PEPTIDE1{[Nle].C.T.A.S.[Nle].P.P.Q.C.Y.[dP].P}$PEPTIDE1,PEPTIDE1,2:R3-10:R3|PEPTIDE1,PEPTIDE1,1:R1-13:R2$$$V2.0) the IC50 was 66 nM. CCCC[C@@H]1NC(=O)[C@@H]2CCCN2C(=O)[C@H]2CCCN2C(=O)[C@H](CCCC)NC(=O)[C@@H]2CSSC[C@H](NC1=O)C(=O)N[C@@H]([C@@H](C)O)C(=O)N[C@@H](C)C(=O)N[C@@H](CO)C(=O)N[C@@H]([C@@H](C)CC)C(=O)N1CCC[C@H]1C(=O)N1CCC[C@H]1C(=O)N[C@@H](CCC(N)=O)C(=O)N2 [Ex. 94] (HELM PEPTIDE1{[Nle].C.T.A.S.I.P.P.Q.C.[Nle].[dP].P}$PEPTIDE1,PEPTIDE1,2:R3-10:R3|PEPTIDE1,PEPTIDE1,1:R1-13:R2$$$V2.0) was tested, and the IC50 was 50 nM. CC[C@H](C)[C@@H]1NC(=O)[C@H](CO)NC(=O)[C@H](C)NC(=O)[C@H]([C@@H](C)O)NC(=O)[C@@H]2CSSC[C@H](NC(=O)[C@H](CCC(N)=O)NC(=O)[C@@H]3CCCN3C(=O)[C@@H]3CCCN3C1=O)C(=O)N[C@@H](Cc1ccc(O)cc1)C(=O)N1CCC[C@@H]1C(=O)N1CCC[C@H]1C(=O)N[C@@H](C1CCCCC1)C(=O)N2 [Ex. 101] (HELM PEPTIDE1{[O=C([C@@H](N[*:1])C1CCCCC1)[*:2]].C.T.A.S.I.P.P.Q.C.Y.[dP].P}$PEPTIDE1,PEPTIDE1,2:R3-10:R3|PEPTIDE1,PEPTIDE1,1:R1-13:R2$$$V2.0) showed an IC50 of 49 nM. Work on CCCC[C@@H]1NC(=O)[C@@H]2CCCN2C(=O)[C@H]2CCCN2C(=O)[C@H](Cc2ccc(O)cc2)NC(=O)[C@H](CCCNC(=N)N)NC(=O)[C@H](CCC(N)=O)NC(=O)[C@@H]2CCCN2C(=O)[C@@H]2CCCN2C(=O)[C@H]([C@@H](C)CC)NC(=O)[C@H](CO)NC(=O)[C@H](C)NC(=O)[C@H]([C@@H](C)O)NC(=O)[C@H](CCC(=O)O)NC1=O [Ex. 105] (HELM PEPTIDE1{[Nle].E.T.A.S.I.P.P.Q.R.Y.[dP].P}$PEPTIDE1,PEPTIDE1,1:R1-13:R2$$$V2.0) yielded an IC50 of 34 nM. Compound CCCC[C@@H]1NC(=O)[C@@H]2CCCN2C(=O)[C@H]2CCCN2C(=O)[C@H](Cc2ccc(O)cc2)NC(=O)[C@H](CCCCN)NC(=O)[C@H](CCC(N)=O)NC(=O)[C@@H]2CCCN2C(=O)[C@@H]2CCCN2C(=O)[C@H]([C@@H](C)CC)NC(=O)[C@H](CO)NC(=O)[C@H](C)NC(=O)[C@H]([C@@H](C)O)NC(=O)[C@H]([C@@H](C)O)NC1=O [Ex. 106] (HELM PEPTIDE1{[Nle].T.T.A.S.I.P.P.Q.K.Y.[dP].P}$PEPTIDE1,PEPTIDE1,1:R1-13:R2$$$V2.0) has an IC50 of 49 nM.
